Experimental data reported in patent publication US20240092814A1, “WATER-SOLUBLE Pd(II) COMPLEX, METHOD FOR SYNTHESIZING SAME, AND USE THEREOF AS [sequence] PRECURSOR” (priority 2022, published 2024).
Where two headings read alike, the source gives them in different places.

Assays:
[1] = Solid-state stability and thermal decomposition (TG-DTA); format: physicochemical
Method: (3) Its solid state is stable at room temperature. In the simulated air atmosphere and nitrogen, a thermal decomposition reaction can occur at a lower temperature (<190° C.) to generate palladium metal (see FIG. 2 and FIG. 3), which can reduce energy consumption in the thermal reduction or calcination process of catalyst preparation. Moreover, the decomposition products are Pd, CO2, N2 and H2O, facilitating clean production and environmental protection.
FIG. 2: a thermogravimetric curve (TG-DTA) of (NH4)2[Pd(NO2)2(C2O4)]·2H2O of the present disclosure in simulated air.
FIG. 3: a thermogravimetric curve (TG-DTA) of (NH4)2[Pd(NO2)2(C2O4)]·2H2O of the present disclosure in nitrogen.

[2] = background statement; cited from earlier work
[3] = Solubility in pure water at room temperature; format: physicochemical
Description: (§1) The pH of the solution at a concentration of 100 g/L is about 4-5.

[4] = Stability of aqueous solution (colour change, precipitation); format: physicochemical
Description: as §1

pH of aqueous solution = format: physicochemical; conditions: concentration of 100 g/L
Description: as §1

For `O.O.O=C([O-])C(=O)[O-].O=C([O-])C(=O)[O-].[NH4+].[NH4+].[Pd+2]` [(NH4)2[Pd(C2O4)2]·2H2O, ammonium bis(oxalato)palladium(II) dihydrate, reference compound], the stability ([1]; room temperature, self-redox reaction producing palladium metal) was “unstable”.

For `O=[N+]([O-])[O-].O=[N+]([O-])[O-].[Pd+2]` [Palladium nitrate solution, palladium nitrate], the stability in water [2] is given as “unstable in water”.

For `O=C1[O][Pd]([N+](=O)[O-])([N+](=O)[O-])[O]C1=O` [Pd-X6, ammonium dinitrooxalato palladium(II)], the solubility [3] was greater than 400 mg/mL, the “solubility in pure water, equivalent Pd” value [3] was greater than 120 g Pd/L and the stability in water ([4]; 60° C. for 5 hours) was “color of the solution does not change and no precipitation is observed”. For the same molecule, the stability in water ([4]; room temperature for 2 days) was “color of the solution does not change and no precipitation is observed”, the “pH of the solution” value (pH of aqueous solution) was 4-5 and the solid state stability ([1]; room temperature) was “stable”. The “thermal decomposition temperature to palladium metal” value ([1]; simulated air atmosphere and nitrogen) was less than 190 °C.
